Test results taken from article PMC6753678, “Fueling Open Innovation for Malaria Transmission-Blocking Drugs: Hundreds of Molecules Targeting Early Parasite Mosquito Stages” (Frontiers in Microbiology, 2019).
Like-named read-outs stand apart in the source and are kept apart here.

Legend:
[1] = tested on: P. falciparum late stage (stages IV-V) gametocytes; design: method as in Almela et al 2016; conditions: ref Almela et al 2016, read-out: Pf GCT ATP IC50, cited from earlier work
[2] = tested on: 3D7-strain P. falciparum asexual parasites; assay: P. falciparum asexual growth inhibition assay (Pf GIA); type: cell-based, Plasmodium falciparum; conditions: dose response confirmation; read-out: Pf asexual growth inhibition assays IC50
Procedure, shortened: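 0.25% parasitemia, 2% Hct, RPMI/HEPES/hypoxanthine/5% Albumax; compound dose response, 72 h, 37°C, 5% CO2, 5% O2, 90% N2. Freeze-thaw, then LDH assay, A650. % inhibition vs chloroquine (50 μM)/DMSO, mean of 3 independent runs.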

[3] = tested on: HepG2 cells; conditions: ref Almela et al 2016, cited from earlier work
[4] = tested on: P. berghei ookinete development; conditions: for Is compound selective in assay? Pb ODA active?: 1: YES, 0: NO; for % inhibition, Replicate A / % inhibition, Replicate B: primary screen at 1 μM
[5] = tested on: P. falciparum late stage (stages IV-V) gametocytes; assay: P. falciparum late stage gametocyte ATP depletion assay (Pf GC-ATP); conditions: 1: YES, 0: NO
[6] = tested on: HepG2 cells; assay: HepG2 cytotoxicity assay; conditions: for IC50: read-out: HepG2 cytotoxicity assay IC50, dose response confirmation
Procedure, shortened: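 Cells at 2,500 per well in MEM with 10% fetal bovine serum and 1% NEAA were exposed to test compounds for 48 h at 37°C, 5% CO2. Viability was read by fluorescence, with percent inhibition calculated against 50 μM doxorubicin (positive) and DMSO (negative) controls.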

[7] = read-out: Pb ODA IC50, this manuscript
[8] = read-out: Pb Ookinete development assay IC50, dose response confirmation
[9] = HepG2 values of the three screens unified
[10] = P. falciparum late stage gametocyte ATP assay, TCAMS screen
[11] = reported with the Pf GCT ATP screen
[12] = >10-fold selectivity over cytotoxicity
[13] = HepG2 cytotoxicity unified across screens, >25 set to 25.00
[14] = HepG2 value reported with Pf GCT ATP screen
[15] = HepG2 cytotoxicity unified across screens, bounds (>) given as plain numbers
[16] = P. falciparum late stage gametocyte ATP assay
[17] = HepG2 data listed with Pf GCT ATP screen
[18] = unified HepG2 value across the three screens

Row | SMILES | Is compound selective in assay? Pf GC-ATP active? [5] | IC50 [1, 10] [nM] | HepG2 cytoxicity [3, 11] [µM] | Is compound selective in assay? Pf GC-ATP active? [5, 12] | Unified cytotox [6, 13] [µM] | other results
1 | CCOc1ccc(-c2nonc2NC(=O)c2cccc(Cl)c2)cc1OCC [TCMDC-125200] | 1 (1: YES) | – | – | – | – | IC50 [1]: 840 nM; IC50 [2]: 156 nM; HepG2 cytoxicity (Pf GCT ATP screen) ([3]; HepG2): >25 µM; Is compound selective in assay? Pb ODA active? [4]: 0 (0: NO); % inhibition, Replicate A [4]: 62.08%; % inhibition, Replicate B [4]: 54.18%; IC50 [4, 7]: 6.23 µM; IC50 [4, 8]: 6.23 µM; HepG2 cytoxicity (Pb ODA, this manuscript) [6]: 19.50 µM; Unified cytotox [6, 9]: 19.50 µM; IC50 [6]: 19.5 µM
2 | Cc1ccc(C)c(CC(=O)N2CCC(n3c(C)nc4ccc(F)cc43)CC2)c1 [TCMDC-124790] | 1 (1: YES) | – | – | – | – | IC50 [1]: 920 nM; IC50 [2]: 252 nM; HepG2 cytoxicity (Pf GCT ATP screen) ([3]; HepG2): >25 µM; Is compound selective in assay? Pb ODA active? [4]: 1 (1: YES); % inhibition, Replicate A [4]: 55.29%; % inhibition, Replicate B [4]: 63.09%; IC50 [4, 7]: 3.66 µM; IC50 [4, 8]: 3.66 µM; HepG2 cytoxicity (Pb ODA, this manuscript) [6]: 57.54 µM; Unified cytotox [6, 9]: 57.54 µM; IC50 [6]: 57.5 µM
3 | CCOCn1c(-c2ccccc2)cc2c3c(N)nc(N)nc3ccc21 [TCMDC-137979] | 0 (0: NO) | – | – | – | – | IC50 [1]: 1300 nM; IC50 [2]: 180 nM; HepG2 cytoxicity (Pf GCT ATP screen) ([3]; HepG2): 5.65 µM; Is compound selective in assay? Pb ODA active? [4]: 0 (0: NO); % inhibition, Replicate A [4]: 30.79%; % inhibition, Replicate B [4]: 81.58%; IC50 [4, 7]: 7.5 µM; IC50 [4, 8]: 7.5 µM; HepG2 cytoxicity (Pb ODA, this manuscript) [6]: 4.79 µM; Unified cytotox [6, 9]: 5.22 µM; IC50 [6]: 4.79 µM
4 | COc1cc2nc(NCC3CCN(c4nc(N)c5cc(OC)c(OC)cc5n4)CC3)nc(N)c2cc1OC [TCMDC-138723] | – | 1420 | >25 | 1 (1: YES) | 25.00 | –
5 | Cc1ccc(-n2c(C)nc3c(Nc4ccc(-c5ccncc5)cc4)ncnc32)c(C)c1 [TCMDC-136289] | – | 530 | >25 | 1 (1: YES) | 25.00 | –
6 | Cl.Ic1cc(CNC2CCCCC2)ccc1OCc1cccc(COc2ccc(CNC3CCCCC3)cc2I)c1 [TCMDC-137261] | – | 330 | >25 | 1 (1: YES) | 25.00 | –
7 | O=C(O)C(=O)O.Oc1c(CN2CCC(Cc3ccccc3)CC2)cc(Cl)c2cccnc12 [TCMDC-124594] | 1 (1: YES) | – | – | – | – | IC50 ([1]; TCAMS library screen): 600 nM; HepG2 cytoxicity (Pf GCT ATP screen) [3, 14]: 9.6 µM; Unified cytotox [6, 15]: 9.60 µM
8 | COc1ccc(CCNc2nc(NCc3ccccc3)c3cc(OC)c(OC)cc3n2)cc1OC [TCMDC-132017] | 0 (0: NO) | – | – | – | – | IC50 [1, 16]: 5600 nM; HepG2 cytoxicity [3, 17]: 4.58 µM; Unified cytotox [6, 18]: 4.58 µM
9 | CC(Cc1ccc(CNC(=O)NCc2ccc(CC(C)NCCc3cccc(Cl)c3)cc2)cc1)NCCc1cccc(Cl)c1 (centres unmarked) [TCMDC-139648] | 0 (0: NO) | – | – | – | – | IC50 ([1]; TCAMS screen comparison): 610 nM; HepG2 cytoxicity ([3]; value reported with the Pf GCT ATP screen): 4.18 µM; Unified cytotox ([6]; HepG2 cytotoxicity unified across the three screens): 4.18 µM
10 | COc1ccc2nc3cc(Cl)ccc3c(NCCCCCCNc3c4ccc(Cl)cc4nc4ccc(OC)cc34)c2c1.Cl.Cl.Cl.Cl [TCMDC-137503] | – | 50 | >25 | 1 (1: YES) | 25.00 | –
11 | COc1cccc(CCNCCCCCCNCCc2ccc(Cl)cc2)c1.Cl [TCMDC-131284] | 1 (1: YES) | – | – | – | – | IC50 [1, 16]: 530 nM; HepG2 cytoxicity [3, 17]: 6.1 µM; Unified cytotox [6, 18]: 6.10 µM
12 | CCN(CC)CCCOC(=O)c1ccc2c(c1)-c1ccc(C(=O)OCCCN(CC)CC)c3cccc-2c13.Cl [TCMDC-125491] | 1 (1: YES) | – | – | – | – | IC50 [1, 16]: 140 nM; HepG2 cytoxicity [3, 17]: 20 µM; Unified cytotox [6, 18]: 20.00 µM
13 | O=C(Nc1cccc(-c2cccc(-c3ccc(F)cc3)n2)c1)c1ccc([N+](=O)[O-])o1 [TCMDC-124807] | 0 (0: NO) | – | – | – | – | IC50 [1, 16]: 1530 nM; HepG2 cytoxicity [3, 17]: 6.94 µM; Unified cytotox [6, 18]: 6.94 µM
14 | COc1cccc(Nc2c(C(N)=O)cnc3ccc(-c4ccc([S+](C)[O-])cc4)cc23)c1.O=C(O)C(F)(F)F (centres unmarked) [TCMDC-135184] | – | 1430 | >25 | 1 (1: YES) | 25.00 | –
15 | COc1cc(NC(=O)c2sc(-c3ccc(Cl)cc3)cc2NC(=O)c2cccnc2)ccc1OCCN1CCCC1 [TCMDC-135397] | – | 610 | >25 | 1 (1: YES) | 25.00 | –
16 | Cl.N=c1n(Cc2ccc(Cl)cc2)c2ccccc2n1CC(O)c1ccc(Cl)c(Cl)c1 (centres unmarked) [TCMDC-123813] | 1 (1: YES) | – | – | – | – | IC50 ([1]; TCAMS library screen): 360 nM; HepG2 cytoxicity (Pf GCT ATP screen) [3, 14]: 6.5 µM; Unified cytotox [6, 15]: 6.50 µM
17 | N=C(N)Nc1nc(-c2ccc(NC(=O)Nc3cccc(-c4csc(NC(=N)N)n4)c3)cc2)cs1 [TCMDC-139559] | – | 1430 | >25 | 1 (1: YES) | 25.00 | –
18 | Cc1cccnc1Nc1nc(-c2ccccn2)cs1 [TCMDC-125846] | 1 (1: YES) | – | – | – | – | IC50 [1, 16]: 100 nM; HepG2 cytoxicity [3, 17]: 3.02 µM; Unified cytotox [6, 18]: 3.02 µM
19 | CC(C)CCNC(=N)Nc1ccc(OCCCCCOc2ccc(NC(=N)NCCC(C)C)cc2)cc1 [TCMDC-137614] | – | 510 | >25 | 1 (1: YES) | 25.00 | –
20 | CC(C)CNCc1cccc(-c2cccc(CNCCCN3CCN(C)CC3)c2)c1.O=C(O)C(F)(F)F [TCMDC-140483] | – | 1560 | >25 | 1 (1: YES) | 25.00 | –
21 | CC(=NNC(=S)NCCc1ccccn1)c1ccccn1 [TCMDC-137895] | – | 1490 | >25 | 1 (1: YES) | 25.00 | –
22 | CCCCOc1ccc(C(=O)C(CCC(CNC(C)(C)C)C(=O)c2ccc(OCCCC)cc2)CNC(C)(C)C)cc1.Cl (centres unmarked) [TCMDC-124120] | 1 (1: YES) | – | – | – | – | IC50 ([1]; TCAMS library screen): 300 nM; HepG2 cytoxicity (Pf GCT ATP screen) [3, 14]: 3.1 µM; Unified cytotox [6, 15]: 3.10 µM
23 | CC(C)CCNC(=N)Nc1ccc(OCCCOc2ccc(NC(=N)NCCC(C)C)cc2)cc1 [TCMDC-137615] | – | 290 | >25 | 1 (1: YES) | 25.00 | –
24 | O=[N+]([O-])c1ccc(C=NNc2nc(Nc3ccccc3)nc(Nc3ccccc3)n2)o1 [TCMDC-125802] | 1 (1: YES) | – | – | – | – | IC50 [1, 16]: 1310 nM; HepG2 cytoxicity [3, 17]: 14.82 µM; Unified cytotox [6, 18]: 14.82 µM
25 | CCn1ncc2c(NC3CCOCC3)c(CNC(=O)c3ccnn3C)c(C)nc21 [TCMDC-136560] | – | 1640 | >25 | 1 (1: YES) | 25.00 | –
26 | Fc1ccc2[nH]c(-c3ccc(-c4ccc(CNCCN5CCNCC5)cc4)s3)nc2c1.O=C(O)C(F)(F)F [TCMDC-132869] | – | 530 | >25 | 1 (1: YES) | 25.00 | –
27 | Oc1c(C(Nc2nc3ccccc3s2)c2ccc(OC(F)F)cc2)ccc2cccnc12 (centres unmarked) [TCMDC-124379] | 1 (1: YES) | – | – | – | – | IC50 ([1]; TCAMS library screen): 440 nM; HepG2 cytoxicity (Pf GCT ATP screen) [3, 14]: 24.1 µM; Unified cytotox [6, 15]: 24.10 µM
28 | COc1ccccc1-c1cccc(-c2cccc(NC(=O)c3ccc([N+](=O)[O-])o3)c2)n1 [TCMDC-124800] | 0 (0: NO) | – | – | – | – | IC50 ([1]; TCAMS library screen): 1660 nM; HepG2 cytoxicity (Pf GCT ATP screen) [3, 14]: 11.47 µM; Unified cytotox [6, 15]: 11.47 µM
29 | CS(=O)(=O)c1cccc(-c2cnc3[nH]cc(-c4cccc(CCN)c4)c3c2)c1 [TCMDC-136307] | – | 470 | >25 | 1 (1: YES) | 25.00 | –
